# Data reported in US20050003029A1, “UTILIZATION OF RUTINS AND AESCINS IN THE TREATMENT OF OCULAR CIRCULATORY DISTURBANCES” (priority 2001, published 2005).
# Test system: retinal hemorrhages and vascular leakages
# Assay: Efficacy case examples: oral therapy of patients with retinal hemorrhages and vascular leakages, detected by fluorescence angiography
# Format: in vivo, human
# Details: orally daily
# Description: (§1) patient with severe visual impairment.
# 2 relatively small intraretinal hemorrhages on the retina existed, further 8 vascular leakages stainable with fluorescein sodium and detectable using fluorescence angiography. The finding existed for 4 months with the tendency to worsen. The basic disease present was a generalized sclerotic vascular complaint.
# patient with suddenly commencing visual impairment, which had existed for 5 months.
# A relatively large intraretinal strip hemorrhage existed as a result of a branch vein thrombosis, further 3 vascular leakages detectable by fluorescence angiography. The basic disease present was latent diabetes mellitus.
# as §1
# 1 relatively large and 2 smaller retinal hemorrhages existed; further three vascular leakages which were detectable using fluorescence angiography. The basic disease was a generalized vascular complaint. The finding existed for 5 months with the tendency for increasing worsening.
# as §1
# A large subretinal hemorrhage existed, further 2 vascular leakages detectable by fluorescence angiography. A risk factor to be seen was the taking for years of a hormonal anticontraceptive.
smiles,measurement,setting,value
"CC1OC(OCC2OC(Oc3c(-c4ccc(OCCO)c(OCCO)c4)oc4cc(OCCO)cc(O)c4c3=O)C(O)C(O)C2O)C(O)C(O)C1O (stereo not drawn) [troxerutin, 3′,4′,7-tris-O-(β-hydroxyethyl)rutin]",leakages sealed,"Case example 1, after 2 weeks",1 leakages
same,leakages sealed (total),"Case example 1, after 4 weeks",3 leakages
same,intraretinal hemorrhages (status),"Case example 1, four-week therapy, 2 relatively small hemorrhages",unchanged
same,vascular leakages (status),"Case example 2, three-week therapy, 3 leakages before",unchanged
same,resorption of intraretinal strip hemorrhage,"Case example 2, three-week therapy, measured by the starting size",10%
same,resorption of a small hemorrhage,"Case example 3, patient, three-week therapy",low-grade beginning of resorption
same,leakages sealed,"Case example 3, three-week therapy",1 leakages
same,leakages sealed,"Case example 4, 2 leakages before",1 leakages
same,resorption of the large subretinal hemorrhage,"Case example 4, combination three weeks, measured by the starting size",approximately 5%
